Measurements reported in patent publication US12729186B2, “Prodrugs for sustained releasing therapeutic agents and uses thereof” (LIANGJIANG MEDICINE CO., LTD., priority 2020, dated 2026).

Assay: Drug release assay (hydrolysis rate test in pH 7.4 / pH 2.0 buffer, HPLC)
Format: physicochemical
Conditions: for Hydrolysis constant Kh pH 2.0 / Hydrolysis constant Kh pH 7.4: Kh=-ln[100%-Release rate (%)]/t; for Release rate (%) pH 2.0 (6 h): pH 2.0 buffer solution; for Release rate (%) pH 2.0 (6 h) / Release rate (%) pH 7.4 (0.5 h) / Release rate (%) pH 7.4 (6 h): 37° C., 200 rpm, residual content relative to 0 h by HPLC; for Release rate (%) pH 7.4 (0.5 h) / Release rate (%) pH 7.4 (6 h): pH 7.4 buffer solution
Protocol: Preparation of pH2.0 Buffer Solution
Preparation of pH7.4 Buffer Solution
Method of Hydrolysis Rate Test
The compounds were dissolved in pH7.4/pH2.0 buffer solution, placed in a constant temperature shaker at 37° C. and 200 rpm, and sampled at 0 h, 0.5 h and 6 h respectively. The residual contents of the compounds relative to 0 h were tested at each time point.
The release rates (%) were calculated using the following equation: Release rate (%)=[A(0h)−A(xh)]/A(0h)×100%, (x=0, 0.5, 6), A(xh) is the peak area of compounds tested by HPLC at the indicated time point.
The hydrolysis constants (Kh) were calculated using the following equation: Hydrolysis constant Kh=−ln[100%−Release rate (%)]/t Results

SMILES	Release rate (%) pH 2.0 (6 h) [%]	Release rate (%) pH 7.4 (0.5 h) [%]	Release rate (%) pH 7.4 (6 h) [%]	Hydrolysis constant Kh pH 2.0	Hydrolysis constant Kh pH 7.4
CCCN(CCC)c1ccc(-c2ccc(OC(=O)OCn3cc(F)c(=O)[nH]c3=O)cc2)cc1 [Example 2, 4′-(Dipropylamino)-[1,1′-biphenyl]-4-yl ((5-fluoro-2,4-dioxo-3,4-dihydropyrimidin-1(2H)-yl)methyl) carbonate]	38	69.5	89	0.080	2.375
CCCCN1CCC(c2ccc(OC(=O)Oc3ccc4nc5c(c(CC)c4c3)Cn3c-5cc4c(c3=O)COC(=O)[C@]4(O)CC)cc2)CC1 [Example 17, (S)-4-(1-butylpiperidin-4-yl)phenyl (4,11-diethyl-4-hydroxy-3,14-dioxo-3,4,12,14-tetrahydro-1H-pyrano[3′,4′:6,7]indolizino[1,2-b]quinolin-9-yl) carbonate]	43.6	4.7	57.4	0.095	0.096
CCc1c2c(nc3ccc(OC(=O)NCC4CCCN4C(c4ccccc4)c4ccccc4)cc13)-c1cc3c(c(=O)n1C2)COC(=O)[C@]3(O)CC (stereo partly drawn) [Example 16, (S)-4,11-diethyl-4-hydroxy-3,14-dioxo-3,4,12,14-tetrahydro-1H-pyrano[3′,4′:6,7]indolizino[1,2-b]quinolin-9-yl ((1-benzhydrylpyrrolidin-2-yl)methyl)carbamate]	0.4	96.2	100	<0.001	6.540
O=C(OCn1cc(F)c(=O)[nH]c1=O)Oc1ccc(C2CCN(CC(c3ccccc3)c3ccccc3)CC2)cc1 [Example 7, 4-(1-(2,2-Diphenylethyl)piperidin-4-yl)phenyl ((5-fluoro-2,4-dioxo-3,4-dihydropyrimidin-1(2H)-yl)methyl) carbonate]	16	99.3	92	0.029	9.924
COc1cccc2c1C(=O)c1c(O)c3c(c(O)c1C2=O)C[C@@](O)(C(C)=O)C[C@@H]3O[C@H]1C[C@H](NC(=O)Oc2ccc(CN3CCN(C)CC3)cc2)[C@H](OC(C)=O)[C@H](C)O1 [Example 23, (2S,3S,4S,6R)-6-(((1S,3S)-3-acetyl-3,5,12-trihydroxy-10-methoxy-6,11-dioxo-1,2,3,4,6,11-hexahydrotetracen-1-yl)oxy)-2-methyl-4-(((4-((4-methylpiperazin-1-yl)methyl)phenoxy)carbonyl)amino)tetrahydro-2H-pyran-3-yl acetate]	2.5	7.2	70.8	0.004	0.149
CCCCCCCN1CCC(COC(=O)Oc2ccc3nc4c(c(CC)c3c2)Cn2c-4cc3c(c2=O)COC(=O)[C@]3(O)CC)CC1 [Example 18, (S)-4,11-diethyl-4-hydroxy-3,14-dioxo-3,4,12,14-tetrahydro-1H-pyrano[3′,4′:6,7]indolizino[1,2-b]quinolin-9-yl ((1-heptylpiperidin-4-yl)methyl) carbonate]	0.3	8.8	11.9	<0.001	0.184

Continued, in another order:

Release rate (%) pH 2.0 (6 h) [%]	Release rate (%) pH 7.4 (0.5 h) [%]	Release rate (%) pH 7.4 (6 h) [%]	SMILES	Hydrolysis constant Kh pH 2.0	Hydrolysis constant Kh pH 7.4
15	89.5	90	O=C(OCn1cc(F)c(=O)[nH]c1=O)Oc1ccc(CC2CCN(C(c3ccccc3)c3ccccc3)CC2)cc1 [Example 9, 4-((1-Benzhydrylpiperidin-4-yl)methyl)phenyl ((5-fluoro-2,4-dioxo-3,4-dihydropyrimidin-1(2H)-yl)methyl) carbonate]	0.027	4.508
56	94.6	95	CCCc1ccc(N2CCc3cc(OC(=O)OCn4cc(F)c(=O)[nH]c4=O)ccc3C2)cc1 [Example 5, (5-Fluoro-2,4-dioxo-3,4-dihydropyrimidin-1(2H)-yl)methyl (2-(4-propylphenyl)-1,2,3,4-tetrahydroisoquinolin-6-yl) carbonate]	0.137	5.838
40.5	20.2	61.3	COc1ccc(OC(=O)OCn2cc(F)c(=O)[nH]c2=O)cc1 [Example 25, (5-Fluoro-2,4-dioxo-3,4-dihydropyrimidin-1(2H)-yl)methyl (4-methoxyphenyl) carbonate]	0.151	0.451
0	4.6	55.7	CCCCCCOC(=O)OCn1cc(F)c(=O)[nH]c1=O [Example 24, (5-Fluoro-2,4-dioxo-3,4-dihydropyrimidin-1(2H)-yl)methyl hexyl carbonate]	<0.001	0.094
37	12.0	54	CCCCC1CCN(c2ccc(CCOC(=O)n3cc(F)c(=O)[nH]c3=O)cc2)CC1 [Example 10, 4-(4-Butylpiperidin-1-yl)phenethyl 5-fluoro-2,4-dioxo-3,4-dihydropyrimidine-1(2H)-carboxylate]	0.077	0.256
60	60.8	100	CCCCCN(CCCCC)c1ccc(OC(=O)OCn2cc(F)c(=O)[nH]c2=O)cc1 [Example 3, 4-(Dipentylamino)phenyl ((5-fluoro-2,4-dioxo-3,4-dihydropyrimidin-1(2H)-yl)methyl) carbonate]	0.153	1.873
0	5.4	64	CCCCN(CCCC)c1ccc(N2CCC(CCOC(=O)OCn3cc(F)c(=O)[nH]c3=O)CC2)cc1 [Example 1, 2-(1-(4-(Dibutylamino)phenyl)piperidin-4-yl)ethyl ((5-fluoro-2,4-dioxo-3,4-dihydropyrimidin-1(2H)-yl)methyl) carbonate]	<0.001	0.111
21	82.7	98	Cc1cc(C)cc(N2CCC(c3ccc(OC(=O)OCn4cc(F)c(=O)[nH]c4=O)cc3)CC2)c1 [Example 4, 4-(1-(3,5-Dimethylphenyl)piperidin-4-yl)phenyl ((5-fluoro-2,4-dioxo-3,4-dihydropyrimidin-1(2H)-yl)methyl) carbonate]	0.039	3.509
